Laboratory results taken from patent US20240315985A1 (Dermavant Sciences GmbH, priority 2021, published 2024).

How the values were obtained:
[1] = test system: plaque psoriasis in adults; experiment: Safety: adverse events (AEs, TEAEs, AESIs, SAEs), extension study; assay type: in vivo, human
Source text: Endpoints: Incidence, frequency, and nature of AEs, adverse events of special interest (AESIs), and serious adverse events (SAEs), Change over time in clinical laboratory tests and frequency of clinically significant abnormal test results, Change over time in vital signs and frequency of clinically significant abnormal results, Local Tolerability Scale (LTS) scores by severity summarized by visit.
Safety assessments included AEs, AESIs, SAEs, local (application site) tolerability, clinical laboratory tests, vital signs, physical examinations, and Investigator assessed LTS. Efficacy assessments included a 5 point static PGA (0 [clear], 1 [almost clear], 2 [mild], 3 [moderate], 4 [severe]), % BSA affected, the PASI, and subject reported DLQI.

[2] = Plasma concentrations, maximal use study with serial PK sampling; assay type: in vivo, human; settings: between Days 1 and 29
Source text: This unique PK profile is characterized by the highest plasma concentrations being observed on the first day or week of the treatment period followed by a subsequent decline to undetectable or near undetectable levels in the plasma after multiple weeks of dosing.
(FIG. 2). This decline is further supported by serial PK data collected from previous clinical studies over 28 days of dosing and over 21 days of dosing.

[3] = test system: plaque psoriasis in adults; experiment: Physician Global Assessment (PGA), long-term open-label extension study (PSOARING 3) of tapinarof cream, 1%; assay type: in vivo, human
Source text: This extension study consisted of up to 40 weeks of treatment and a 4 week, safety follow up period.
The PGA was used to assess the primary efficacy endpoint in this study. The PGA is a clinical tool for assessing the current state/severity of a subject's psoriasis at a given time point. It is a static, 5 point, morphological assessment of overall disease severity, as determined by the Investigator, using the clinical characteristics of erythema, scaling, and plaque thickness/elevation as guidelines; higher PGA scores represent more severe disease (0=clear, 1=almost clear, 2=mild, 3=moderate, and 4=severe). The BSA affected was not considered in scoring of the PGA. Variations of the PGA are frequently used in clinical studies because it is a simple assessment, similar to those used in clinical practice. The PGA was performed first, prior to the % BSA, PASI, and LTS assessments.
Time to event parameters, such as the time from treatment success to subsequent worsening (PGA≥2) or duration of treatment episode, were summarized by the Kaplan Meier product limit method using OC.

[4] = test system: psoriasis; experiment: 12-week phase 2b trial in psoriasis, maintenance after treatment cessation; assay type: in vivo, human
Source text: As mentioned, tapinarof is a novel therapeutic aryl hydrocarbon receptor modulating agent (TAMA) in clinical development for the topical treatment of psoriasis and atopic dermatitis. […] AhR modulates T cell responses both through intrinsic control of T cell subset differentiation and via controlling the function of antigen presenting cells. In addition, AhR signaling promotes the conversion of Th17 cells to type 1 regulatory T cells. Aberrant immune responses underpin the pathogenesis of both PsO and AD, and the wide expression of AhR in immune cells makes it an attractive target given the essential role of AhR in regulating inflammatory responses and skin homeostasis. […] These clinical data support the role of AhR in skin immune homeostasis. Given the multitude of AhR-dependent immunoregulatory mechanisms, AhR is an attractive target for novel immunotherapies with the potential to extend therapeutic efficacy following treatment discontinuation; this may provide a unique clinical benefit to patients.

[5] = Preclinical repeat dosing study, systemic exposure; assay type: in vivo; settings: CYP1A1/2 induced in skin or liver
Source text: The reason for the decrease in plasma concentrations over time is unknown. Without wishing to be bound by theory, as the skin heals, there may be less penetration of the drug through the stratum corneum and into the systemic circulation since the barrier is restored.

Decline in plasma concentrations of tapinarof [2]: 10 fold | Change in systemic exposures with repeat dosing compared to single doses ([5]; minipigs): no changes in systemic exposures | Change in systemic exposures with repeat dosing compared to single doses ([5]; rats): no changes in systemic exposures
Compound: CC(C)c1c(O)cc(/C=C/c2ccccc2)cc1O [tapinarof, 3,5-Dihydroxy-4-isopropyl-trans-stilbene]
Study discontinuation due to AESI: Dermatitis contact, Patients, % ([1]; Overall (n = 763)): (1.4) % | Study discontinuation due to AESI: Folliculitis, Patients, % ([1]; Overall (n = 763)): (1.2) % | Study discontinuation due to TEAEs, Patients, % ([1]; Overall (n = 763)): (5.4) % | Treatment-emergent AESI: Dermatitis contact, Patients, % ([1]; Overall (n = 763)): (5.9) % | Treatment-emergent AESI: Folliculitis, Patients, % ([1]; Overall (n = 763)): (24.0) % | Treatment-emergent AESI: Headache, Patients, % ([1]; Overall (n = 763)): (2.0) % | Study discontinuation due to AESI: Dermatitis contact, Patients, % ([1]; Tapinarof→Tapinarof (n = 508)): (1.4) % | Study discontinuation due to AESI: Folliculitis, Patients, % ([1]; Tapinarof→Tapinarof (n = 508)): (1.2) % | Study discontinuation due to TEAEs, Patients, % ([1]; Tapinarof→Tapinarof (n = 508)): (5.1) % | Treatment-emergent AESI: Dermatitis contact, Patients, % ([1]; Tapinarof→Tapinarof (n = 508)): (4.7) % | Treatment-emergent AESI: Folliculitis, Patients, % ([1]; Tapinarof→Tapinarof (n = 508)): (24.4) % | Treatment-emergent AESI: Headache, Patients, % ([1]; Tapinarof→Tapinarof (n = 508)): (2.0) % | Study discontinuation due to AESI: Dermatitis contact, Patients, % ([1]; Vehicle→Tapinarof (n = 255)): (1.6) % | Study discontinuation due to AESI: Folliculitis, Patients, % ([1]; Vehicle→Tapinarof (n = 255)): (1.2) % | Study discontinuation due to TEAEs, Patients, % ([1]; Vehicle→Tapinarof (n = 255)): (5.9) % | Treatment-emergent AESI: Dermatitis contact, Patients, % ([1]; Vehicle→Tapinarof (n = 255)): (8.2) % | Treatment-emergent AESI: Folliculitis, Patients, % ([1]; Vehicle→Tapinarof (n = 255)): (23.1) % | Treatment-emergent AESI: Headache, Patients, % ([1]; Vehicle→Tapinarof (n = 255)): (2.0) % | Durability of Response, No. of Subjects ([3]; Vehicle→Tapinarof, Wk. 0): 22 | Remittive effect off therapy ([3]; patients with complete disease clearance (PGA=0)): approximately 4 months | Time efficacy was maintained after treatment cessation [4]: four
